One block for each molecule: values may come before it.
Experiments:
mGluR5 = molecular target: T1, mGluR5 (Rattus norvegicus, UniProt P31424); experiment: mGluR5 binding assay ([3H]-MPEP radioligand competition); conditions: competition with 3 nM [3H]-MPEP, rat brain cortical membranes, 1 h at 4 °C; mean of at least three independent experiments in duplicate
T1 construct: tissue Charles River Laboratories; host or cells: rat brain cortex membranes (Sprague-Dawley)
In short: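 Rat cortical membranes (50 μg) were incubated 1 h at 4 °C with 3 nM [3H]-MPEP and compound (0.003 nM-30 μM, 8 points) in HEPES buffer pH 7.4 with Mg2+, Ca2+ and NaCl. 30 μM MPEP defined non-specific binding, and bound label was counted after filtration. IC50 came from non-linear regression, as the mean of ≥3 experiments run in duplicate.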

T1 sequence (P31424 21-1203): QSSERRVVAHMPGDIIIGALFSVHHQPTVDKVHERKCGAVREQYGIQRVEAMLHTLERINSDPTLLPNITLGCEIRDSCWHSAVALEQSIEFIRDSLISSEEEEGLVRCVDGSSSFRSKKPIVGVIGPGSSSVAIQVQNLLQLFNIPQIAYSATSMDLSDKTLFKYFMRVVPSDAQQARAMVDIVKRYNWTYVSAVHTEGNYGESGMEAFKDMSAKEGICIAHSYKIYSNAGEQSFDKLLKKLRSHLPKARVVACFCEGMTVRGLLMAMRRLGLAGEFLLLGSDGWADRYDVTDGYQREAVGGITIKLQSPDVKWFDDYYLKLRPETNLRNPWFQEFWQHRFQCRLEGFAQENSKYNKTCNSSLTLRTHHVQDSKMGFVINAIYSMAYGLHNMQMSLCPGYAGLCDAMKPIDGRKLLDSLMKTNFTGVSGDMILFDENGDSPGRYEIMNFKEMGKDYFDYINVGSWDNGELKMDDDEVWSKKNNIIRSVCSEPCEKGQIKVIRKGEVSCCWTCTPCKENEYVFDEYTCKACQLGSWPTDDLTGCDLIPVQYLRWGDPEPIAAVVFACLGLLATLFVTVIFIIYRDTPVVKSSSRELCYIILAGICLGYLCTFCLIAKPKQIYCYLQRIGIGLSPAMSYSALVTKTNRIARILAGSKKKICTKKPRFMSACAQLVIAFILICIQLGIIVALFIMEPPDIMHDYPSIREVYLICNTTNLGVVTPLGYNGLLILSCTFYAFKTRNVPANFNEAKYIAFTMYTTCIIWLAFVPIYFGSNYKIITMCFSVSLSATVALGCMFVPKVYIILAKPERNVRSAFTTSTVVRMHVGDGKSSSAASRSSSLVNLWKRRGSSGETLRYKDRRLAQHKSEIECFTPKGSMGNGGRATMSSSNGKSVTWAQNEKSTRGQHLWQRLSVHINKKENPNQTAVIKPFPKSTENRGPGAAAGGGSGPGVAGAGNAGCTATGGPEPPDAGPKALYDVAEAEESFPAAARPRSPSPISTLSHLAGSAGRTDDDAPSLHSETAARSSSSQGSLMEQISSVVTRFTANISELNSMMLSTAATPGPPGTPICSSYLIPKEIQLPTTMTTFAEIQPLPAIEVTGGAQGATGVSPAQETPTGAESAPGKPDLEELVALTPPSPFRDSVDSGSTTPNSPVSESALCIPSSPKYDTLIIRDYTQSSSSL

SMILES: C(#Cc1ccccn1)CCc1nc2ccccc2o1.Cl [Example 8, 2-(4-(Pyridin-2-yl)but-3-ynyl)benzo[d]oxazole Hydrochloride]
melting point: 143.5 to 145 °C
IC50 (mGluR5): < 0.05 µM

SMILES: Cc1nc(C#CCCc2ccccc2)c[nH]1 [Example 11, 2-Methyl-4-(4-phenylbut-1-ynyl)-1H-imidazole]
melting point: 124 to 126 °C

SMILES: C(#Cc1ccccn1)CCn1nnc(-c2ccccc2)n1 [Example 32, 2-(4-(5-Phenyl-2H-tetrazol-2-yl)but-1-ynyl)pyridine]
melting point: 71 to 73 °C
IC50 (mGluR5): < 10 µM

SMILES: C(#Cc1ccccn1)CCc1nc2ccccc2s1 [Example 35, 2-(4-(Pyridin-2-yl)but-3-ynyl)benzo[d]thiazole]
melting point: 98.5 to 99.4 °C
IC50 (mGluR5): < 0.05 µM

SMILES: Clc1ccc2nc(CCC#Cc3ccccn3)oc2c1 [Example 36, 6-Chloro-(2-(4-pyridin-2-yl)but-3-ynyl)benzo[d]oxazole]
melting point: 101.5 to 102.2 °C
IC50 (mGluR5): < 10 µM

SMILES: O=c1n(CCC#Cc2ccccn2)nc2ccccn12 [Example 39, 2-(4-(Pyridin-2-yl)but-3-ynyl)-[1,2,4]triazolo[4,3-a]pyridin-3(2H)-one]
melting point: 95.5 to 96 °C

SMILES: Clc1ccc(-c2noc(CCC#Cc3ccccn3)n2)cc1 [Example 47, 2-(4-(3-(4-Chlorophenyl)-1,2,4-oxadiazol-5-yl)but-1-ynyl)pyridine]
melting point: 75 to 77 °C
IC50 (mGluR5): < 10 µM

SMILES: C(#Cc1ccccn1)CCc1nc(-c2ccc3ccccc3c2)no1 [Example 51, 2-(4-(3-(Naphthalen-2-yl)-1,2,4-oxadiazol-5-yl)but-1-ynyl)pyridine]
melting point: 76 to 78 °C
IC50 (mGluR5): < 10 µM

SMILES: Clc1ccc(-c2noc(CCC#Cc3ccccn3)n2)c(Cl)c1 [Example 57, 2-(4-(3-(2,4-Dichlorophenyl)-1,2,4-oxadiazol-5-yl)but-1-ynyl)pyridine]
melting point: 77 to 78 °C
IC50 (mGluR5): < 10 µM

SMILES: O=C(NCCC#Cc1cccc(CF)n1)c1c(Cl)cccc1Cl [Example 189, 2,6-Dichloro-N-(4-(6-(fluoromethyl)pyridin-2-yl)but-3-ynyl)benzamide]
IC50 (mGluR5): < 10 µM

SMILES: Cn1c(CCC#Cc2cccc(CF)n2)nc2cccc(Cl)c21 [Example 191, 7-Chloro-2-(4-(6-(fluoromethyl)pyridin-2-yl)but-3-ynyl)-1-methyl-1H-benzo[d]imidazole]
IC50 (mGluR5): < 10 µM

SMILES: Cn1c(CCC#Cc2ccccn2)nc2cccc(Cl)c21 [Example 192, 7-Chloro-1-methyl-2-(4-(pyridin-2-yl)but-3-ynyl)-1H-benzo[d]imidazole]
IC50 (mGluR5): < 0.5 µM

SMILES: CC(C)n1c(CCC#Cc2ccccn2)nc2ccccc21 [Example 194, 1-Isopropyl-2-(4-(pyridin-2-yl)but-3-ynyl)-1H-benzo[d]imidazole]
IC50 (mGluR5): < 10 µM

SMILES: Cn1c(CCC#Cc2ccccn2)nc2cc(F)ccc21 [Example 197, 5-Fluoro-1-methyl-2-(4-(pyridin-2-yl)but-3-ynyl)-1H-benzo[d]imidazole]
IC50 (mGluR5): < 10 µM

SMILES: CN(CCC#Cc1ccccn1)C(=O)c1ccccc1C(F)(F)F [Example 202, N-Methyl-N-(4-(pyridin-2-yl)but-3-ynyl)-2-(trifluoromethyl)benzamide]
IC50 (mGluR5): < 10 µM

SMILES: CN(CCC#Cc1ccccn1)C(=O)c1ccccc1Cl [Example 204, 2-Chloro-N-methyl-N-(4-(pyridin-2-yl)but-3-ynyl)benzamide]
IC50 (mGluR5): < 10 µM

SMILES: CN(CCC#Cc1ccccn1)C(=O)c1cccc(Cl)c1 [Example 205, 3-Chloro-N-methyl-N-(4-(pyridin-2-yl)but-3-ynyl)benzamide]
IC50 (mGluR5): < 10 µM

SMILES: CN(CCC#Cc1ccccn1)S(=O)(=O)c1ccccc1Cl [Example 207, 2-Chloro-N-methyl-N-(4-(pyridin-2-yl)but-3-ynyl)benzenesulfonamide]
IC50 (mGluR5): < 10 µM

SMILES: CN(CCC#Cc1cccc(CF)n1)C(=O)c1ccccc1Cl [Example 208, 2-Chloro-N-(4-(6-(fluoromethyl)pyridin-2-yl)but-3-ynyl)-N-methylbenzamide]
IC50 (mGluR5): < 0.5 µM

SMILES: CN(CCC#Cc1cccc(CF)n1)S(=O)(=O)c1ccccc1Cl [Example 209, 2-Chloro-N-(4-(6-(fluoromethyl)pyridin-2-yl)but-3-ynyl)-N-methylbenzene sulfonamide]
IC50 (mGluR5): < 0.05 µM

SMILES: CN(CCC#Cc1ccccn1)C(=O)c1ccccc1 [Example 211, N-Methyl-N-(4-(pyridin-2-yl)but-3-ynyl)benzamide]
IC50 (mGluR5): < 10 µM

SMILES: CN(CCC#Cc1ccccn1)C(=O)c1c(Cl)cccc1Cl [Example 218, 2,6-Dichloro-N-methyl-N-(4-(pyridin-2-yl)but-3-ynyl)benzamide]
IC50 (mGluR5): < 0.5 µM

SMILES: Cc1noc(C)c1S(=O)(=O)N(C)CCC#Cc1ccccn1 [Example 219, N,3,5-Trimethyl-N-(4-(pyridin-2-yl)but-3-ynyl)isoxazole-4-sulfonamide]
IC50 (mGluR5): < 10 µM

SMILES: C(#Cc1ccccn1)CCNc1nc2ccccc2s1 [Example 220, N-(4-(Pyridin-2-yl)but-3-ynyl)benzo[d]thiazol-2-amine]
IC50 (mGluR5): < 10 µM

SMILES: Cn1c(=O)n(CCCC#Cc2ccccn2)c2ccccc21 [Example 221, 1-Methyl-3-(5-(pyridin-2-yl)pent-4-ynyl)-1H-benzo[d]imidazol-2(3H)-one]
IC50 (mGluR5): < 10 µM

SMILES: FCc1cccc(C#CCCc2cn3cccc(Br)c3n2)n1 [Example 225, 8-Bromo-2-(4-(6-(fluoromethyl)pyridin-2-yl)but-3-ynyl)-imidazo[1,2-a]pyridine]
IC50 (mGluR5): < 0.05 µM

SMILES: FCc1cccc(C#CCCc2cn3cccc(-c4ccccc4)c3n2)n1 [Example 227, 2-(4-(6-(Fluoromethyl)pyridin-2-yl)but-3-ynyl)-8-phenyl-imidazo[1,2-a]pyridine]
IC50 (mGluR5): < 10 µM

SMILES: Cc1csc(C#CCCn2nc3ccccc3n2)n1 [Example 229, 2-(4-(4-Methylthiazol-2-yl)but-3-ynyl)-2H-benzo[d][1,2,3]triazole]
melting point: 78 to 80 °C

SMILES: O=c1c2ccccc2cnn1CCCCC#Cc1ccccn1 [Example 243, 2-(6-(Pyridin-2-yl)hex-5-ynyl)phthalazin-1(2H)-one]
IC50 (mGluR5): < 10 µM

SMILES: O=C(NCCC#Cc1cccc(CF)n1)c1ccccc1Cl [Example 247, 2-Chloro-N-(4-(6-(fluoromethyl)pyridin-2-yl)but-3-ynyl)benzamide]
IC50 (mGluR5): < 10 µM

SMILES: FCc1cccc(C#CCCn2ncc(-c3ccc(F)cc3)n2)n1 [Example 250, 2-(Fluoromethyl)-6-(4-(4-(4-fluorophenyl)-2H-1,2,3-triazol-2-yl)but-1-ynyl)pyridine]
melting point: 84 to 86 °C

SMILES: FCc1cccc(C#CCCn2cc(-c3ccc(F)cc3)nn2)n1 [Example 254, 2-(Fluoromethyl)-6-(4-(4-(4-fluorophenyl)-1H-1,2,3-triazol-1-yl)but-1-ynyl)pyridine]
melting point: 100 to 103 °C

Next, values leading:

melting point: 68 to 71 °C
IC50 (mGluR5): < 10 µM
SMILES: CN(C(=O)CCC#Cc1ccccn1)c1ccccc1 [Example 12, N-Methyl-N-phenyl-5-(pyridin-2-yl)pent-4-ynamide]

melting point: 189.9 to 190.2 °C
IC50 (mGluR5): < 1 µM
SMILES: O=C(CCC#Cc1ccccn1)Nc1ccc(F)cc1 [Example 34, N-(4-Fluorophenyl)-5-(pyridine-2-yl)pent-4-ynamide]

melting point: 100.1 to 101 °C
IC50 (mGluR5): < 10 µM
SMILES: Fc1ccc2oc(CCC#Cc3ccccn3)nc2c1 [Example 37, 5-Fluoro-(2-(4-pyridin-2-yl)but-3-ynyl)benzo[d]oxazole]

melting point: 68 to 69 °C
IC50 (mGluR5): < 10 µM
SMILES: Fc1ccc(C#CCCC#Cc2ccccn2)cc1 [Example 38, 2-(6-(4-Fluorophenyl)hexa-1,5-diynyl)pyridine]

IC50 (mGluR5): < 10 µM
SMILES: O=c1ccccn1CCC#Cc1ccccn1 [Example 198, 1-(4-(Pyridin-2-yl)but-3-ynyl)pyridin-2(1H)-one]

IC50 (mGluR5): < 10 µM
SMILES: CN(CCC#Cc1ccccn1)C(=O)c1cccc(F)c1 [Example 200, 3-Fluoro-N-methyl-N-(4-(pyridin-2-yl)but-3-ynyl)benzamide]

IC50 (mGluR5): < 10 µM
SMILES: CN(CCC#Cc1ccccn1)S(=O)(=O)c1ccc(F)cc1 [Example 206, 4-Fluoro-N-methyl-N-(4-(pyridin-2-yl)but-3-ynyl)benzenesulfonamide]

IC50 (mGluR5): < 10 µM
SMILES: Cc1ccccc1C(=O)N(C)CCC#Cc1ccccn1 [Example 212, N,2-Dimethyl-N-(4-(pyridin-2-yl)but-3-ynyl)benzamide]

IC50 (mGluR5): < 10 µM
SMILES: CN(CCC#Cc1ccccn1)C(=O)c1ccccc1F [Example 213, 2-Fluoro-N-methyl-N-(4-(pyridin-2-yl)but-3-ynyl)benzamide]

IC50 (mGluR5): < 10 µM
SMILES: Cc1cccc(C(=O)N(C)CCC#Cc2ccccn2)c1 [Example 215, N,3-Dimethyl-N-(4-(pyridin-2-yl)but-3-ynyl)benzamide]

IC50 (mGluR5): < 10 µM
SMILES: COc1ccccc1C(=O)N(C)CCC#Cc1ccccn1 [Example 216, 2-Methoxy-N-methyl-N-(4-(pyridin-2-yl)but-3-ynyl)benzamide]

IC50 (mGluR5): < 10 µM
SMILES: CN(CCC#Cc1ccccn1)C(=O)c1cccc(F)c1F [Example 217, 2,3-Difluoro-N-methyl-N-(4-(pyridin-2-yl)but-3-ynyl)benzamide]

IC50 (mGluR5): < 0.05 µM
SMILES: O=C(OCCC#Cc1ccccn1)c1ccccc1Cl [Example 235, 4-(Pyridin-2-yl)but-3-ynyl 2-chlorobenzoate]

IC50 (mGluR5): < 0.05 µM
SMILES: O=C(OCCC#Cc1ccccn1)c1cccc(Cl)c1 [Example 236, 4-(Pyridin-2-yl)but-3-ynyl 3-chlorobenzoate]

melting point: 122 to 125 °C
SMILES: Cc1cc(F)ccc1NC(=O)CCC#Cc1cccc(CF)n1 [Example 252, 5-(6-(Fluoromethyl)pyridin-2-yl)-N-(4-fluoro-2-methyl-phenyl)pent-4-ynamide]

melting point: 130 to 131 °C
SMILES: Cc1c(-c2ccc(F)cc2)nnn1CCC#Cc1ccccn1 [Example 258, 2-(4-(4-(4-Fluorophenyl)-5-methyl-1H-1,2,3-triazol-1-yl)but-1-ynyl)pyridine]

Source: patent US8883826B2, “Alkynyl derivatives as modulators of metabotropic glutamate receptors” (Addex Pharma SA, priority 2004, dated 2014)
